This is an account of results in patent US8916536B2, “Bone-targeting bisphosphonate duplex drugs” (priority 2010, dated 2014).

Counter-ions that a name gives are not always drawn.

For data set [1], the system named is 6 different tumor cell lines. The following applies: 6 days of incubation, in average, read-out: concentration for 50% growth inhibition; cited from earlier work.
A short description of data set [2]: Hydroxyapatite binding of nucleoside-BPs. It counts as physicochemical. As to the method: It is known that the BPs moiety of conjugates preserves its high affinity for the bone matrix even when coupled to a bulk residue^17,41 The high affinity to the bone matrix is based on the strong binding properties of BPs to hydroxyapatite^42, 43, 44. For this reasons, we analyzed the adsorption properties of 5-FdU-ale and 5-FdU to hydroxyapatite.
5-FdU (246 mg, 1 mmol) or 5-FdU-ale (475 mg) were dissolved in distilled water (100 ml). The A260-units of the obtained solution and the absorbance ratios of 250/260 and 280/260 were determined using an UV-spectrophotometer. After addition of solid hydroxyapatite as listed in Table 2 the obtained suspension was stirred at room temperature for 24 h. Then, an aliquot (1 ml) of the suspension was filtered through a sterile filter and the A260-units of the filtrate were measured. The amount of drug bound to hydroxyapatite was calculated on the basis of the decreased A260-units of the suspension.
(§1) A solution of 5-FdU-ale (475 mg) in 100 ml H2O was acidified to pH 2 by adding HCl and stirred at 50° C. for 24 h, followed by neutralization with solid sodium carbonate. UV-active degradation products were not detectable at 254 nm by TLC-analysis with CHCl3/MeOH (80:20) using silica gel plates. The hydroxyapatite binding of the pretreated 5-FdU-ale was analyzed as described above.

For a further data set, the system named is HL-60 (TB). Put plainly: NCI 60-cell line in vitro screen (SRB), growth percent. It counts as cell-based. The following applies: Leukemia, 10 μM, 48 h incubation, 100% = growth without drug.
For the next data set, the system named is EKVX. The data set is described as above. The format is cell-based. The following applies: Non-small cell lung cancer, 10 μM, 48 h incubation, 100% = growth without drug.
The next data set concerns HOP-62. The data set is described as above. It counts as cell-based. The following applies: HOP-62, Non-small cell lung cancer; 10 μM, 48 h incubation; 100% = growth without drug.
The next data set concerns NCI-H322M. Described as above. The following applies: Non-small cell lung cancer, 10 μM, 48 h incubation, 100% = growth without drug. It counts as cell-based.
For a further data set, the system named is SF-268. The description is as above. The following applies: SF-268, CNS cancer; 10 μM, 48 h incubation; 100% = growth without drug. The format is cell-based.
The test system of a further data set is SF-539. Described as above. It counts as cell-based. The following applies: SF-539, CNS cancer; 10 μM, 48 h incubation; 100% = growth without drug.
The subject of a further data set is SNB-75. Described as above. It counts as cell-based. The following applies: SNB-75, CNS cancer; 10 μM, 48 h incubation; 100% = growth without drug.
The subject of another data set is MALME-3M. Described as above. It counts as cell-based. The following applies: Melanomas, 10 μM, 48 h incubation, 100% = growth without drug.
In the next data set the test system is MDA-MB-435. Described as above. It counts as cell-based. The following applies: MDA-MB-435, Melanomas; 10 μM, 48 h incubation; 100% = growth without drug.
The test system of a further data set is OVCAR-3. The description is as above. The following applies: OVCAR-3, Ovarian cancers; 10 μM, 48 h incubation; 100% = growth without drug. The format is cell-based.
The subject of the next data set is CAKI-1. Described as above. The format is cell-based. The following applies: CAKI-1, Renal cancers; 10 μM, 48 h incubation; 100% = growth without drug.
Another data set deals with 60 tumor cell lines. Put plainly: NCI 60-cell line in vitro screen, whole panel. The format is cell-based. The following applies: 48/59 cell lines; 10 μM, 48 h incubation.
Data set [3] can be described thus: Stability in acidic conditions (pH 2, 50° C., 24 h; TLC / UV ratio). It counts as physicochemical. On the procedure: as §1
The binding study was also used for an indirect assessment of the stability of the nucleoside-BPs in acidic conditions. Binding was reduced by 13% compared to the untreated compound when a solution of 5-FdU-ale was acidified to pH 2 and kept at 50° C. during 24 h prior to the adsorption to hydroxyapatite. The unchanged A250/260 and 280/260 UV-ratio indicate that no cleavage of 5-FdU-ale into the monomer 5-FdU+ ale occurs during treatment with hydroxyapatite under the used conditions.
Thus, the absence of UV-active compounds allows to conclude that 5-FdU-ale is very stable in acidic conditions.

Where [4] appears, read: hydroxyapatite 7 g, drug in 100 ml water, 24 h room temperature.
Where [5] appears, read: hydroxyapatite 5 g, drug in 100 ml water, 24 h room temperature.
[6] abbreviates: hydroxyapatite 7 g, acid pretreatment (pH 2, 50° C., 24 h, then neutralized).

Take `O=P(O)(O)C(Cl)(Cl)P(=O)(O)O` [Clondronat]: the IC50 in data set [1] is 1 to 1410 µM.
Take `O=c1[nH]c(=O)n([C@H]2C[C@H](O)[C@@H](CO)O2)cc1F` [5-FdU, 2′-deoxy-5-fluorouridine, reference compound]: in data set [2] (setting [4]), the Bound drug % was 15% and the Bound drug mg stood at 37 mg.
Consider `O=c1nc(NCCCC(O)(P(=O)(O)O)P(=O)(O)O)c(F)cn1C1CC(O)C(CO)O1` (centres unmarked) [6a, N^4-[butyl-(4-hydroxy-4-phosphono)phosphonate]-5-fluoro-2′-deoxycytidine], for which the “Growth [%]” value in the data set on HL-60 (TB) was determined as 61.75%; in the data set with EKVX, 82.45%; in the data set on HOP-62, 93.16%; with NCI-H322M, 88.84%; in the data set with SF-268, 86.64%; in the data set with SF-539, 94.79%. The “Growth [%]” value with SNB-75 came to 87.12%; in the data set with MALME-3M, 89.24%; with MDA-MB-435 it was 86.95%; in the data set on OVCAR-3, 88.34%; in the data set with CAKI-1, 79.14%. For the same compound, the “growth inhibition in the other cell lines” value in the data set with 60 tumor cell lines is listed as “did not show any growth inhibition”. Also, in data set [2] (acidified to pH 2, 50° C., 24 h prior to adsorption), the “reduction of binding compared to the untreated compound” value was 13%. The Bound drug % in data set [2] (setting [5]) stood at 41%; in data set [2] (setting [6]), 74%; in data set [2] (setting [4]) it was 87%. The figures for the Bound drug mg in data set [2] (setting [5]), in data set [2] (setting [6]) and in data set [2] (setting [4]) were 195 mg, 352 mg and 414 mg, respectively. In addition, in [2] (hydroxyapatite 7 g), the “adsorption to hydroxyapatite relative to 5-FdU” value is listed as “approximately sixfold higher”. Further, in [3] (during treatment with hydroxyapatite, unchanged A250/260 and 280/260 UV-ratio), the “cleavage into the monomers 5-FdU + ale” value is given as “no cleavage”. Also, in [3] (pH 2, 50° C., 24 h, TLC of supernatant, no UV-active compounds), the “stability in acidic conditions” value is listed as “very stable”.
With `NCCCC(O)(P(=O)(O)O)P(=O)(O)O` [alendronate, (4-Amino-1-hydroxy-1-phosphonobutyl)phosphonate monosodium salt*3H20], the IC50 in data set [1] was 11 to 1860 µM.
